Test results from patent publication US10294236B2, “Compounds as rearranged during transfection (RET) inhibitors” (GLAXOSMITHKLINE INTELLECTUAL PROPERTY DEVELOPMENT LIMITED, priority 2014, dated 2019).
Where a name gives a salt, the structure may show the parent alone.

Molecular target: T1, Human RET kinase cytoplasmic domain (Homo sapiens, UniProt P07949)
T1 construct: made in house
T1 sequence (P07949 658-1114): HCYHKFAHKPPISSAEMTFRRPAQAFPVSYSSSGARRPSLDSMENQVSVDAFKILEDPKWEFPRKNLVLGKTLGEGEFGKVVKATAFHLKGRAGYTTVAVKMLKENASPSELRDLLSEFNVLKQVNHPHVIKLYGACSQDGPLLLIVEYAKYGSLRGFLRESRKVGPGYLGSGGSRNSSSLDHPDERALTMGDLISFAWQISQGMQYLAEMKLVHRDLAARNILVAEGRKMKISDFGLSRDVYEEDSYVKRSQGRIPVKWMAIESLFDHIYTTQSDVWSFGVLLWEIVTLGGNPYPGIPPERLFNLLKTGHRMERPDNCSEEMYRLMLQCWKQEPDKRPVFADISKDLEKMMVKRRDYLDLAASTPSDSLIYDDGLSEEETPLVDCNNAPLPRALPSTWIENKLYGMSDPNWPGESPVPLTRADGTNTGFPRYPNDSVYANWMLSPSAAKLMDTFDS
Test: RET kinase enzymatic assay
Type: biochemical
Experimental: GST-RET was purified using glutathione sepharose chromatography. The RET kinase enzymatic assay was performed in a total volume of 10 uL with increasing concentrations of RET kinase inhibitor as a singlet in a 384 well format as follows: RET inhibitor compound plates are prepared by adding 100 nL of RET inhibitor at different concentrations to a 384-well plate. 5 μL/well of a 2× enzyme mix (50 mM HEPES (4-(2-hydroxyethyl)-1-piperazineethanesulfonic acid); 1 mM CHAPS (3-[(3-cholamidopropyl)dimethylammonio]-1-propanesulfonate); 0.1 mg/mL BSA (bovine serum albumin); 1 mM DTT (dithiothreitol); 0.2 nM RET kinase) was added to the 384-well plate and incubated for 30 minutes at 23° C. 5 µL/well of a 2× substrate mix (50 mM HEPES; 1 mM CHAPS; 0.1 mg/mL BSA; 20 μM adenosine triphosphate; 20 mM MgCl2 and 1 μM biotinylated peptide substrate) was added and incubated for 1 hour at 23° C. […] IC50s were fitted using GraphPad Prism to a sigmoidal dose response.

Compound	IC50 [µM]
CCOc1cc(-c2ncc(NC(=O)Nc3cc(OCCN(C)C)cc(C(F)(F)F)c3)cn2)c[nH]c1=O [Example 178, 1-(3-(2-(dimethylamino)ethoxy)-5-(trifluoromethyl)phenyl)-3-(2-(5-ethoxy-6-oxo-1,6-dihydropyridin-3-yl)pyrimidin-5-yl)urea dihydrochloride]	< 0.1
CCOc1cc(-c2nc(C)c(NC(=O)Nc3cc(-n4cnc(C)c4)cc(C(F)(F)F)c3)c(C)n2)c[nH]c1=O [Example 53, 1-(2-(5-Ethoxy-6-oxo-1,6-dihydropyridin-3-yl)-4,6-dimethylpyrimidin-5-yl)-3-(3-(4-methyl-1H-imidazol-1-yl)-5-(trifluoromethyl)phenyl)urea]	< 0.1
CCOc1cc(-c2ccc(NC(=O)Nc3ccc(OC4(C)COC4)c(C(F)(F)F)c3)c(OC)n2)c[nH]c1=O [Example 110]	< 0.1
CCOc1cc(-c2ncc(NC(=O)Nc3ccc(C(C)(C)CN)c(C(F)(F)F)c3)c(C)n2)c[nH]c1=O [Example 70, 1-(4-(1-Amino-2-methylpropan-2-yl)-3-(trifluoromethyl)phenyl)-3-(2-(5-ethoxy-6-oxo-1,6-dihydropyridin-3-yl)-4-methylpyrimidin-5-yl)urea dihydrochloride]	< 0.1
CCOc1cc(-c2ccc(NC(=O)Nc3cc(C(C)(C)C(F)(F)F)on3)c(F)c2)c[nH]c1=O [Example 11, 1-(4-(5-Ethoxy-6-oxo-1,6-dihydropyridin-3-yl)-2-fluorophenyl)-3-(5-(1,1,1-trifluoro-2-methylpropan-2-yl)isoxazol-3-yl)urea]	< 0.1
CCOc1cc(-c2ncc(NC(=O)Nc3cc(C(F)(F)F)c(CN(C)C)cc3F)cn2)c[nH]c1=O [Example 188, 1-(4-((Dimethylamino)methyl)-2-fluoro-5-(trifluoromethyl)phenyl)-3-(2-(5-ethoxy-6-oxo-1,6-dihydropyridin-3-yl)pyrimidin-5-yl)urea dihydrochloride]	< 0.1
CC1(Oc2ccc(NC(=O)Nc3ccc(-c4c[nH]c(=O)cc4F)cc3F)cc2C(F)(F)F)COC1 [Example 37, 1-(2-Fluoro-4-(4-fluoro-6-oxo-1,6-dihydropyridin-3-yl)phenyl)-3-(4-((3-methyloxetan-3-yl)oxy)-3-(trifluoromethyl)phenyl)urea]	< 0.1

Second part, the compound after the results:

IC50 [µM]	Compound
< 0.1	CCOc1cc(-c2ccc(NC(=O)Nc3ccc(OC4(C)COC4)c(C(F)(F)F)c3)c(C3CC3)n2)c[nH]c1=O [Example 104]
< 0.1	CCOc1cc(-c2nc(C)c(NC(=O)Nc3ccc(CN4CCN(CC)CC4)c(C(F)(F)F)c3)c(C)n2)c[nH]c1=O [Example 33, 1-(2-(5-Ethoxy-6-oxo-1,6-dihydropyridin-3-yl)-4,6-dimethylpyrimidin-5-yl)-3-(4-((4-ethylpiperazin-1-yl)methyl)-3-(trifluoromethyl)phenyl)urea]
< 0.1	CCOc1cc(-c2ccc(NC(=O)Nc3cc(-n4cnc(C)c4)cc(C(F)(F)F)c3)c(F)c2)c[nH]c1=O [Example 2, 1-(4-(5-Ethoxy-6-oxo-1,6-dihydropyridin-3-yl)-2-fluorophenyl)-3-(3-(4-methyl-1H-imidazol-1-yl)-5-(trifluoromethyl)phenyl)urea]
< 0.1	CCOc1cc(-c2ncc(NC(=O)Nc3ccc(C(C)C#N)c(C(F)(F)F)c3)c(C)n2)c[nH]c1=O (centres unmarked) [Example 25, 1-(4-(1-Cyanoethyl)-3-(trifluoromethyl)phenyl)-3-(2-(5-ethoxy-6-oxo-1,6-dihydropyridin-3-yl)-4-methylpyrimidin-5-yl)urea]
< 0.1	CCOc1cc(-c2ncc(NC(=O)Nc3cc(-n4cnc(C)c4)cc(C(F)(F)F)c3)c(C)n2)c[nH]c1=O [Example 57, 1-(2-(5-Ethoxy-6-oxo-1,6-dihydropyridin-3-yl)-4-methylpyrimidin-5-yl)-3-(3-(4-methyl-1H-imidazol-1-yl)-5-(trifluoromethyl)phenyl)urea]
< 0.1	CCOc1cc(-c2ccc(NC(=O)Nc3ccc(OC4(C)COC4)c(C(F)(F)F)c3)cn2)c[nH]c1=O [Example 106]
< 0.1	CCOc1cc(-c2ccc(NC(=O)Nc3ccc(C(C)C#N)c(C(F)(F)F)c3)c(F)c2)c[nH]c1=O (centres unmarked) [Example 127]
